According to BindingDB's records for doi:10.1016/j.bmc.2012.08.058 (Purdue University, 2012):

Assays:
[1] = target: T1, D(3) dopamine receptor (Homo sapiens, UniProt P35462); experiment: Agonist activity at dopamine D3 receptor in human U2OS-D3 cells assessed as EA-tagged beta-arrestin translocation after 1.5 hrs by luminescence based beta-galactosidase assay
[2] = target: D(2) dopamine receptor (Homo sapiens, UniProt P14416); experiment: Displacement of [3H]-N-methylspiperone from human dopamine D2long receptor expressed in HEK293 cells after 30 mins by scintillation counting
[3] = target: T1, D(3) dopamine receptor; experiment: Displacement of [3H]-N-methylspiperone from human dopamine D3 receptor expressed in HEK293 cells after 30 mins by scintillation counting

T1 sequence (P35462 as listed by the source): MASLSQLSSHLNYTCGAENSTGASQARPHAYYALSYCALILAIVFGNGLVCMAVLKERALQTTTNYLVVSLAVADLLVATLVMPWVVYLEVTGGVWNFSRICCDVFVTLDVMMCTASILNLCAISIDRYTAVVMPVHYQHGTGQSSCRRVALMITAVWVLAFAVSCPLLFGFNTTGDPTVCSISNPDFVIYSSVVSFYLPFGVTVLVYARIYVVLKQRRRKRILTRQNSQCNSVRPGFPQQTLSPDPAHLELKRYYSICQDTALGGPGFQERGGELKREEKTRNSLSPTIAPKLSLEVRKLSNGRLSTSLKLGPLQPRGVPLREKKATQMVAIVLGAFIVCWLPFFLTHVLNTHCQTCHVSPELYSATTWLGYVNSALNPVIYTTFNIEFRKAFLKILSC
Sequence of D(2) dopamine receptor (P14416 whole entry): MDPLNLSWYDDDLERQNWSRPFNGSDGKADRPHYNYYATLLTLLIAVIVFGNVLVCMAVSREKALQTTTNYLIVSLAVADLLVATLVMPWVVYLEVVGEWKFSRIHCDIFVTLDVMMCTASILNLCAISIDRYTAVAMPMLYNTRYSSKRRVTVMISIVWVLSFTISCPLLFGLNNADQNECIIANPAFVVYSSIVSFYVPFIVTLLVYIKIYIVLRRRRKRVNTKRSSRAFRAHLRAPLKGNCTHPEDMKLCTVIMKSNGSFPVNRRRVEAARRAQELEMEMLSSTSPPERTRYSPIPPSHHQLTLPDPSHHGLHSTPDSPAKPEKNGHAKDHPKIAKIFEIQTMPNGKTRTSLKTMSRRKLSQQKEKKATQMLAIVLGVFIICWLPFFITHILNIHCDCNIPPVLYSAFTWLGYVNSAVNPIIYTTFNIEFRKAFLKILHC

CCCN1C[C@H](c2ccc(O)cc2)C[C@@H]2c3cc(O)c(O)cc3CC[C@H]21
EC50 [1]: 46 nM | Ki [2]: 160 nM | Ki [3]: 1.1 nM
